We go through one compound from US11324786B2, “Lactic acid bacteria and use thereof” (priority 2017, dated 2022).

Common to all, as to format: in vivo, mouse
The test system of one data set is myeloperoxidase (MPO). Put plainly: Colitis animal model: myeloperoxidase activity in colon tissue. As to conditions: TNBS colitis mice, oral once daily for 3 days, lactic acid bacteria 1×10^9 CFU, sulfasalazine 50 mg/kg. On the procedure:
6 C57BL/6 mice (male, 21 to 23 g, 6 weeks old) formed one group which was adapted to a test room for 1 week. One group was used as a normal group, and the other group was treated with 2,4,6-trinitrobenzenesulfonic acid (TNBS) to induce colitis. Specifically, after test animals were anesthetized with ether, 0.1 ml of TNBS solution mixed with 50% ethanol was injected into the large intestine through the anus using a 1 ml syringe with a round tip, and the test animals were raised up vertically for 30 seconds to cause inflammation. Meanwhile, 0.1 ml of physiological saline was orally administered to the normal group. […] The next day when the lactic acid bacteria administration was finished, the test animal was sacrificed, and a portion of the colon from a cecum to a site immediately before the anus was removed and then a length thereof was measured. […]
200 μl of 10 mM potassium phosphate buffer (pH 7.0) containing 0.5% hexadecyl trimethyl ammonium bromide was added to 100 mg of colon tissue, and was homogenized. […] 50 μl of the supernatant was added to 0.95 ml of a reaction solution (containing 1.6 mM tetramethyl benzidine and 0.1 mM H2O2) and the absorbance was measured over time at 650 nm while reacting at 37° C. The activity of myeloperoxidase (MPO) was calculated while 1 μmol/ml of H2O2 generated as a reactant was defined as one unit.

The next data set has as its system IL-17. Put plainly: Colitis animal model: IL-17 in colon. Conditions: colon tissue, TNBS colitis mice; oral once daily for 3 days; lactic acid bacteria 1×10^9 CFU, sulfasalazine 50 mg/kg. On the procedure: (§1) 6 C57BL/6 mice (male, 21 to 23 g, 6 weeks old) formed one group which was adapted to a test room for 1 week. One group was used as a normal group, and the other group was treated with 2,4,6-trinitrobenzenesulfonic acid (TNBS) to induce colitis. Specifically, after test animals were anesthetized with ether, 0.1 ml of TNBS solution mixed with 50% ethanol was injected into the large intestine through the anus using a 1 ml syringe with a round tip, and the test animals were raised up vertically for 30 seconds to cause inflammation. Meanwhile, 0.1 ml of physiological saline was orally administered to the normal group. After the administration, the novel lactic acid bacterium Lactobacillus mucosae NK41, Bifidobacterium longum NK46 or a 1:1 mixture thereof was suspended in physiological saline which in turn was orally administered thereto in an amount of 1×10^9 CFU once daily for 3 days from a next day. The next day when the lactic acid bacteria administration was finished, the test animal was sacrificed, and a portion of the colon from a cecum to a site immediately before the anus was removed and then a length thereof was measured. […]
(§2) Western blotting methods were used to measure inflammatory response indicator materials, such as p-p65, p65, COX-2 and IL-17. […] Further, the expression level of cytokines thereof was measured using an ELISA kit.

In a further data set the test system is COX-2. Put plainly: Colitis animal model: COX-2 in colon. Conditions: colon tissue, TNBS colitis mice; oral once daily for 3 days; lactic acid bacteria 1×10^9 CFU, sulfasalazine 50 mg/kg. On the procedure: as §1, §2
In a further data set the test system is colitis animal model. Put plainly: TNBS colitis animal model: weight change, colon length, toxicity. As to conditions: TNBS colitis mice; oral once daily for 3 days; lactic acid bacteria 1×10^9 CFU, sulfasalazine 50 mg/kg.
In a further data set the test system is TNF-α. Put plainly: Colitis animal model: TNF-α in colon. Conditions: colon tissue, TNBS colitis mice; oral once daily for 3 days; lactic acid bacteria 1×10^9 CFU. On the procedure:
as §1, §2

`O=C(O)c1cc(/N=N/c2ccc(S(=O)(=O)Nc3ccccn3)cc2)ccc1O` [Positive group, sulfasalazine] displayed an MPO activity in the data set on myeloperoxidase (MPO) of 0.98 μU/mg. This compound also had an IL-17 in the data set with IL-17 of 41 pg/mg. In addition, the COX-2 activity in the data set with COX-2 is given as 0.41. In the data set on colitis animal model, this compound displayed a Colon length of 4.7 cm and a Weight change of -0.54 g. Moreover, the TNF-α in the data set on TNF-α is listed as 75 pg/mg.
